Measured values: publication PMC2229574 (The Journal of General Physiology, 2003)
Several values for one entry are separate records, joined by “and”; a condition that tells them apart may be missing. Identical values can stand only once. Like-named read-outs stand apart in the source and are kept apart here.

What was measured:
mouse AChR αD97C = mouse AChR αD97C (Mus musculus, UniProt P02716+P04756+P20782, D117C)
[1] = molecular target: mouse AChR δ-subunit N98V (Mus musculus, UniProt P02716+P04756+P20782, N122V); conditions: 20 mM choline
[2] = molecular target: mouse AChR ɛ-subunit D97V (Mus musculus, UniProt P02716+P04756+P20782, D117V); conditions: 20 mM choline
mouse AChR αD97L = mouse AChR αD97L (Mus musculus, UniProt P02716+P04756+P20782, D117L)
[3] = molecular target: mouse AChR δ-subunit D99V (Mus musculus, UniProt P02716+P04756+P20782, D123V); conditions: 20 mM choline
mouse AChR αD97E = mouse AChR αD97E (Mus musculus, UniProt P02716+P04756+P20782, D117E); experiment: cell-based
mouse AChR αD97H [4] = molecular target: T1, mouse AChR αD97H (Mus musculus, UniProt P02716+P04756+P20782, D117H); conditions: for L2: kinetic modeling
mouse AChR αD97Y = mouse AChR αD97Y (Mus musculus, UniProt P02716+P04756+P20782, D117Y)
mouse AChR αD97H [5] = molecular target: T1, mouse AChR αD97H; experiment: cell-based
[6] = molecular target: wild-type mouse AChR (α2βδɛ) (Mus musculus, UniProt P02716+P04756+P20782); conditions: cited from earlier work
[7] = molecular target: mouse AChR δ-subunit N98A (Mus musculus, UniProt P02716+P04756+P20782, N122A); conditions: 20 mM choline
[8] = read-out: k+ (association rate constant, single TBS)
[9] = read-out: k− (dissociation rate constant, single TBS)
[10] = joint fit choline 1, 2 and 5 mM, Scheme I

Chain of mouse AChR αD97L (P04756 21-457 D117L): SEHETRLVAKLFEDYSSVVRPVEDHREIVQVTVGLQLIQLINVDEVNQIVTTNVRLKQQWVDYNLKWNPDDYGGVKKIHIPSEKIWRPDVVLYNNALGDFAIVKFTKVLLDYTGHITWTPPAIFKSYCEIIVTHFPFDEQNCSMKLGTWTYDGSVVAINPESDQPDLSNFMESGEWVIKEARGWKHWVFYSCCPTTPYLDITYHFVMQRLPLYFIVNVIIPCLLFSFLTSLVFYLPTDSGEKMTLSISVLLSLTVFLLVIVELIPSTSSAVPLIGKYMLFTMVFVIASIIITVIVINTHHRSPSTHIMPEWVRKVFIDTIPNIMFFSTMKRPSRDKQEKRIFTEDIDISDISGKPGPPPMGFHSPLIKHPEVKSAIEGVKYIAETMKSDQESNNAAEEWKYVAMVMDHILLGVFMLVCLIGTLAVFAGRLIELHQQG
Chain of mouse AChR αD97L (P09690 24-501 partner): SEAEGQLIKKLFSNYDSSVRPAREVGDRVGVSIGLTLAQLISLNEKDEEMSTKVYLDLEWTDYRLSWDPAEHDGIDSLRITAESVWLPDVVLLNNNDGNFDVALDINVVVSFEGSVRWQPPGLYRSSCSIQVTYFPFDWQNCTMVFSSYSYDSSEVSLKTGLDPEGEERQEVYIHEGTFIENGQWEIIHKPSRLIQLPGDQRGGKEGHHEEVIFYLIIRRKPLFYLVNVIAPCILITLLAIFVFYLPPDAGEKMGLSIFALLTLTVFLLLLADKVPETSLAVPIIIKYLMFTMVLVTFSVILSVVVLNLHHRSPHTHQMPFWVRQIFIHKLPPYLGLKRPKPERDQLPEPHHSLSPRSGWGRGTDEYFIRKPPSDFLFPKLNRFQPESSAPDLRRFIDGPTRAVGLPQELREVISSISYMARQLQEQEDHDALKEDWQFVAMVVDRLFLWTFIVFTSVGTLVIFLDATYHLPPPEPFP
Chain of mouse AChR αD97L (P02716 25-520): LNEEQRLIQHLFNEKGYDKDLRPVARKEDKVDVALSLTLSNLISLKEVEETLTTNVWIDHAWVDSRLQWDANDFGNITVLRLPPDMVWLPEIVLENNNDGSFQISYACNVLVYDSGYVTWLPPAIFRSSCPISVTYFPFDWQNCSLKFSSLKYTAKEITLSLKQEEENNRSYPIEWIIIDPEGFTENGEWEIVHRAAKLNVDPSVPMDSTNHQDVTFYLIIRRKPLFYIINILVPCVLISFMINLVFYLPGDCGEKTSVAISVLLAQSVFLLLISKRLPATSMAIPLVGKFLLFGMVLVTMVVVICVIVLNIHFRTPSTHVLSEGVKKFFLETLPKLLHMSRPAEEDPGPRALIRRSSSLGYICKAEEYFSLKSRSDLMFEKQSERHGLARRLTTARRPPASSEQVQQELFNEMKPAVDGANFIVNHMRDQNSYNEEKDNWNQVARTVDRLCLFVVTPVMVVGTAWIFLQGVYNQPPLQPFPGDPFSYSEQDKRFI
Chain of mouse AChR αD97L (P20782 21-493, stated change not applied): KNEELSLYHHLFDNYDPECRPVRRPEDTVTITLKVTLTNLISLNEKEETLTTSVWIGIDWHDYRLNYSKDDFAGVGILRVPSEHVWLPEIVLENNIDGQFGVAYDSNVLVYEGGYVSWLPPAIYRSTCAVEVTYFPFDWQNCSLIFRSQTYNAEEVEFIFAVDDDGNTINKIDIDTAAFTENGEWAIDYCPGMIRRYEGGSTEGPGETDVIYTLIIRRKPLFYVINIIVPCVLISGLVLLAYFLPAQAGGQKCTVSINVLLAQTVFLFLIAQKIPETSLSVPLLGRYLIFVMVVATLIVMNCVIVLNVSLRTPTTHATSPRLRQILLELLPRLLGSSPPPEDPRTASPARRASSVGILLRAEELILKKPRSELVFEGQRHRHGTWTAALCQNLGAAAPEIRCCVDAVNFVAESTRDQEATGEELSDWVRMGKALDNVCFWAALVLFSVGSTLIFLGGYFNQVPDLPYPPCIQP
T1 sequence (P04756 21-457 D117H): as the sequence (P04756 21-457 D117L) above, with L97H counted along it
T1 sequence (P09690 24-501 partner): as the sequence (P09690 24-501 partner) above
T1 sequence (P02716 25-520): as the sequence (P02716 25-520) above
T1 sequence (P20782 21-493, stated change not applied): as the sequence (P20782 21-493, stated change not applied) above

In the case of C[N+](C)(C)CCO [choline], the “α2 (diliganded channel closing rate constant)” value (mouse AChR αD97C; 0.4 mM choline) is reported as 2,172 s^−1, the “β2 (diliganded channel opening rate constant)” value (mouse AChR αD97C; 20 mM choline) is reported as 531 s⁻¹ and the “L2 (diliganded gating equilibrium constant, β2/α2)” value (mouse AChR αD97C; choline) is reported as 0.244. The “L2-ratio (mut/wt)” value (mouse AChR αD97C; choline) was 5.13, the “α2* (apparent channel closing rate constant)” value [1] was 437 s⁻¹ and the “β2 (channel opening rate constant)” value [1] was 62 s⁻¹. The “α2* (apparent channel closing rate constant)” value [2] was 933 s⁻¹, the “β2 (channel opening rate constant)” value [2] was 103 s⁻¹ and the “α2 (diliganded channel closing rate constant)” value (mouse AChR αD97L; 0.4 mM choline) was 2,684 s^−1. The “β2 (diliganded channel opening rate constant)” value (mouse AChR αD97L; 20 mM choline) was 91 s⁻¹, the “L2 (diliganded gating equilibrium constant, β2/α2)” value (mouse AChR αD97L; choline) was 0.034 and the “L2-ratio (mut/wt)” value (mouse AChR αD97L; choline) was 0.71. For the same compound, the “α2* (apparent channel closing rate constant)” value [3] was 561 s⁻¹, the “β2 (channel opening rate constant)” value [3] was 117 s⁻¹ and the Kd (mouse AChR αD97E; Kd (k−/k+), αD97E, choline, kinetic modeling, Scheme I) was 2100 µM and 2140 µM. The kon (mouse AChR αD97E; [8]) was 2.84e+06 M⁻¹ s⁻¹, the koff (mouse AChR αD97E; [9]) was 6070 s⁻¹ and the “α2 (diliganded channel closing rate constant)” value (mouse AChR αD97H [4]; 0.4 mM choline) was 1,938 s^−1. The “β2 (diliganded channel opening rate constant)” value (mouse AChR αD97H [4]; 20 mM choline) was 1,840 s^−1, the “L2 (diliganded gating equilibrium constant, β2/α2)” value (mouse AChR αD97H [4]; choline) was 0.949 and the “L2-ratio (mut/wt)” value (mouse AChR αD97H [4]; choline) was 19.94. The “L2 (equilibrium gating constant) from Popen dose–response analysis” value (mouse AChR αD97H [4]; choline, fit by Eq. 2) was 1.1 ± 0.5, the L2 (mouse AChR αD97H [4]; choline, Scheme I) was 1.2 ± 0.1 and the L2 (mouse AChR αD97H [4]; choline, Scheme I, listed as Choline) was 1.15 ± 0.14. The α2 (mouse AChR αD97H [4]; [10]) was 2,759 ± 149 s^−1, the β2 (mouse AChR αD97H [4]; [10]) was 3,189 ± 168 s^−1 and the “α2 (diliganded channel closing rate constant)” value (mouse AChR αD97Y; 0.4 mM choline) was 1,992 s^−1. For the same compound, the “β2 (diliganded channel opening rate constant)” value (mouse AChR αD97Y; 20 mM choline) was 1,396 s^−1, the “L2 (diliganded gating equilibrium constant, β2/α2)” value (mouse AChR αD97Y; choline) was 0.701 and the “L2-ratio (mut/wt)” value (mouse AChR αD97Y; choline) was 14.72. The Kd (mouse AChR αD97H [5]; Kd (k−/k+), αD97H, choline, kinetic modeling, Scheme I) was 2800 µM and 2840 µM, the kon (mouse AChR αD97H [5]; [8]) was 1.06e+06 M⁻¹ s⁻¹ and the koff (mouse AChR αD97H [5]; [9]) was 2990 s⁻¹. The “choline dissociation from open AChRs (value subtracted from the α2 estimate)” value ([6]; ref Cymes et al., 2002) was 200 s⁻¹, the “channel-opening rate constant, times slower than for ACh” value ([6]; wt AChRs, ref Zhou et al., 1999, Grosman and Auerbach, 2000a) was 500 times and the “α2* (apparent channel closing rate constant)” value [7] was 1,335 s^−1. For the same compound, the “β2 (channel opening rate constant)” value [7] was 36 s⁻¹.
